# Results taken from patent US10183030B2, “17α,21-diesters of cortexolone for use in the treatment of tumors” (COSMO TECHNOLOGIES LTD., priority 2014, dated 2019).
# Read-outs that look alike come from different tables or passages of the source.
# How the values were obtained:
# [1] = tested on: stimulated PBMC (actively dividing cells); experiment: IC50 on stimulated PBMC (intrinsic toxicity); type: cell-based; details: Homo sapiens, stimulated PBMC
# Method: (§1) The IC50 in PBMC were tested in 2 different activation status: • stimulated—actively dividing cells • resting—quiescent, non-dividing cells
# (§2) IC50 of the compounds was determined on fresh cells isolated from human blood (PBMC).
# [2] = tested on: resting PBMC (quiescent, non-dividing cells); experiment: IC50 on resting PBMC (intrinsic toxicity); type: cell-based; details: Homo sapiens, resting PBMC
# Method: as §1, §2
# [3] = tested on: HT29 epithelial intestinal cancer cells; experiment: MTT colorimetric assay on HT29; type: cell-based; details: Homo sapiens, 72 h
# Method: The experiment was performed to test and define anticancer activity in vitro of Cortexolone 17α-benzoate and cortexolone 17α-valerate-21-propionate on cell lines representatives of epithelial intestinal tumors, namely HT29. The experiment method consisted in: • 1. Monolayer HT-29 cells were plated in: 96-wells plates at the density of 2×10^4 cells/mL. The cells plated were kept at 37° C. in 5% CO2 and left to attach for 24 h. • 2. Thereafter the cells were incubated for 72 h with the test compounds at the concentrations each of […]. • 3. After 72 h of treatment, the MTT colorimetric assay was performed.
# [4] = tested on: MiaPaca-2 xenograft tumor; experiment: MiaPaca2 human pancreatic tumor xenograft in nude mice, subcutaneous treatment; type: in vivo, mouse
# Method: The test was carried out comparing the anti-tumor activity of cortexolone 17α-benzoate at two different dosages (8.0 mg/kg, corresponding approximately at 230 μM, and 40 mg/kg, corresponding approximately at 1150 μM), versus the vehicle (i.e. 0.4% (v/v) tween 80 and 0.5% (w/v) carboxymethylcellulose in normal saline) and versus the comparator Cyproterone Acetate at two different dosages (7.4 mg/kg and 37 mg/kg).
# 1×10^6 MiaPaca-2 cells suspended in matrigel were subcutaneously injected into 6 week old athymic nude mice.
# The treatment with the tested compounds, with the vehicle and with the comparative compound, was initiated after the tumor volume has reached 50 mm^3 after transplantation. All compounds were injected 100 μL/mouse subcutaneously of low dose solution (approximately 230 μM) or 100 μL/mouse of high dose solution (approximately 1150 μM) of cortexolone 17α-benzoate, vehicle and cyproterone acetate, respectively. Compounds and controls were administered subcutaneously daily for 28 days.
# Tumors were measured every 4 days with a digital caliper.
# The results are plotted in FIG. 1 as average change in tumor volume relative to the start of treatment. Tumor volume was calculated according to the formula 0.5236(r1)^2(r2) where r1<r2.
# The test was carried out comparing the anti-tumor activity of cortexolone 17α-valerate-21-propionate (CB-03-10) at two different dosages (approximately 8.6 mg/kg and 43 mg/kg) versus the vehicle (i.e. 0.4% (v/v) tween 80 and 0.5% (w/v) carboxymethylcellulose in normal saline) and versus the comparator Cyproterone Acetate at two different dosages (7.4 mg/kg and 37 mg/kg).
# The treatment with the tested compound, with the vehicle and with the comparative compound was initiated after the tumor has reached a volume of 50 mm^3 after implantation, injecting subcutaneously 100 μL/mouse of low dose solution (approximately 230 μM) or 100 μL/mouse of high dose solution (approximately 1150 μM) of cortexolone 17α-valerate-21-propionate (CB-03-10), vehicle and cyproterone acetate, respectively. Compounds and controls were administered subcutaneously daily for 28 days.
# The results are plotted in FIG. 2 as average change in tumor volume relative to the start of treatment. Tumor volume was calculated according to the formula 0.5236(r1)^2(r2) where r1<r2.
# CPA a well-known anti-androgen was used as control. Briefly 1×10^6 MiaPaca2 cells suspended in matrigel were subcutaneously (SC) injected into 6 week old male athymic nude mice. Tumors were measured every 4 days with a digital caliper. Tumor volume was calculated according to the formula: 0.5236(r1) 2(r2) where r1<r2. Treatment with CB-03-10 and controls compounds was initiated after the tumor had reached 50 mm^3. Compounds diluted in DMSO/2-hydroxypropyl b-cyclodextrin (vehicle) were injected subcutaneously (SC) daily (100 μL/mouse) at the concentration of 40 mg/Kg daily for 28 consecutive days.
# LNCaP xenograft tumor = experiment: LNCaP human prostate cancer xenograft in nude mice, oral dosing; type: in vivo, mouse
# Method: 3×10^6 LNCaP cells suspended in matrigel were subcutaneously injected (on the right flank) into 6 week old male athymic nude mice. Tumors were measured as described above. Treatment with CB-03-10 and controls compounds was initiated after the tumor had reached 50 mm^3. […] Oral dosing was daily (100 mg/Kg in 200 μL/mouse) for 28 consecutive days. Results were plotted as average change in tumor volume relative to the start of treatment.
# [5] = tested on: Caspase 8, 9 and 3/7 in MiaPaca2 cells; experiment: Caspase activity in MiaPaca2 cells; type: cell-based, human
# Method: From previous studies was determined that CB-03-10 induces apoptosis using Annexin V staining in MiaPaca2 cells. To better analyze the phenomenon the enzymatic activity of Caspase 8 (initiator caspase for Extrinsic Pathway) and Caspase 9 (initiator caspase for Intrinsic Pathway) and of Caspases 3 and 7 (effector caspases) were measured.
# After 24 hours test compounds were added to cells, Gemcitabine (a known pancreatic cancer chemotherapeutic agent) and DMSO were used as positive and negative control, respectively. After 8, 24, & 48 hours incubation with test compounds, cells were lysed in buffer containing the caspase 3/7 or 8 or 9 substrate and a stable luciferase in proprietary buffers. The lysates were transferred to white opaque plates before measuring luminescence in a Tecan Safire instrument. Parallel plates treated identically, were used to determine viable cells. All caspase activities were corrected for the number of viable cells.
# [6] = In vitro metabolism in rat plasma; type: in vitro ADME; details: 37° C.; FIG. 13
# Method: To obtain some insights on the metabolism of CB-03-10 in human and rat plasma, a specific assay was designed. Briefly the compound was incubated at different time in human and rat plasma at 37° C. After incubation the samples were tested for presence of the intact compound by liquid chromatography.
# [7] = Example 22, 40 mg/Kg SC daily for 28 days
compound,measurement,setting,value
"CCCCC(=O)O[C@]1(C(=O)COC(=O)CC)CC[C@H]2[C@@H]3CCC4=CC(=O)CC[C@]4(C)[C@H]3CC[C@@]21C [CB-03-10, cortexolone 17α-valerate-21-propionate]",IC50,"[1]; Example 7, Experiment 1, read-out: IC50 (microM) on Stimulated PBMC",106 µM
same,IC50,"[1]; Example 7, Experiment 2, read-out: IC50 (microM) on Stimulated PBMC",94 µM
same,IC50,"[2]; Example 7, Experiment 1, read-out: IC50 (microM) on Resting PBMC",114 µM
same,IC50,"[2]; Example 7, Experiment 2, read-out: IC50 (microM) on Resting PBMC",120 µM
same,inhibition at 0.8 µM,"[3]; HT-29, 0.8 micromolar",0.44%
same,inhibition at 4 µM,"[3]; HT-29, 4 micromolar",14.2%
same,inhibition at 20 µM,"[3]; HT-29, 20 micromolar",25.5%
same,inhibition at 100 µM,"[3]; HT-29, 100 micromolar",89.8%
same,inhibition at 500 µM,"[3]; HT-29, 500 micromolar",92.1%
same,"pancreatic tumor size increase relative to the initial size, during the treatment period","[4]; Example 22, 40 mg/Kg SC daily for 28 consecutive days",less than 5 fold
same,Median survival,[4]; [7],70 days
same,tumor size increase 14 days after treatment was stopped,[4]; [7],6 fold
same,pancreatic tumor size increase relative to the start of treatment,"[4]; Examples 5 and 6, SC daily for 28 days, test compounds at high dose (approximately 1150 μM, 100 μL/mouse), Cyproterone Acetate treatment groups 7.4 and 37 mg/kg",less than 5 fold
same,average tumor volume smaller than in the vehicle group,"LNCaP xenograft tumor; 6 weeks after treatment was stopped, oral 100 mg/Kg",3.6 times
same,statistical significance of tumor growth versus vehicle,"LNCaP xenograft tumor; FIG. 16, oral gavage",statistically significantly different from day 7 up to day 60
same,Caspase 3/7 induction,"[5]; 8, 24, 48 hours",already at 8 hours at and a really high level after 48 hours incubation
same,increase in Caspase 8 and 9 activity compared to control,"[5]; 20 or 50 μM, 8, 24, 48 hours, corrected for viable cells",≤ 7 fold
same,degradation in rat plasma,[6],degraded more rapidly in rat compared to human plasma
